Consider two substances from patent US20160193328A1, “Immunoadjuvant Compositions and uses Thereof” (INSERM (INSTITUT NATIONAL DE LA SANTÉ ET DE LA RECHERCHE …, priority 2013, published 2016).

Test [1] relates to OVA-specific IgG. The experiment in a line: OVA-specific IgG in serum by ELISA after immunisation. The class given is in vivo, C57Bl/6 mice. A general note: ELISA stands for enzyme-linked immunosorbent assay.
In test [2] the test system is OVA-specific B cells. The experiment in a line: OVA-specific B cell response in dLN after immunisation (flow cytometry). The class given is in vivo, C57Bl/6 mice. The settings on record: TLR agonist added to IFA; 100 μg OVA s.c.; 14 days; FIG. 2A. As for the experimental part:
(§1) Mice were either i.p. injected or immunized s.c. at the base of tail with 40 μg of peptide 1W1K, 100 μg of OVA, 200 μg of Ea-FITC in the indicated adjuvant with or without soluble TLR agonist, in a final volume of 200 µL. To target moDC, mice were immunised s.c. with 1.2×1010 beads (which correspond to 40 μg Ea52-68, 1W1K or 100 μg OVA) in indicated adjuvant with or without soluble TLR agonist. At indicated times post-immunisation, spleen or dLN (inguinal and periaortic) were collected and cells were stained for flow cytometry analysis.
For population analysis, dLN were harvested from mice and single cell suspensions were prepared in PBS with 2% FCS, 5 mM EDTA. For DC analysis, lymphoid organs were dissociated using 125 μg/mL LiberaseTL (Roche) and 40 μg/mL DNAase I (Sigma-Aldrich) at 37° C. for 20 min. […] Data were collected on a BD LSRII™ (BD Biosciences) and analysed using FlowJo software (Tree Star).
We hypothesized that an increase in the CD4+ T cell help and specifically an increase of the Tfh cells, the critical regulators of B cell responses, could result in a greater B cell response to the Ag after addition of TLR agonist to another adjuvant. The murine B cell response to ovalbumin (OVA) in wt animals is a valuable immunisation model that can be monitored via the polyclonal Ig repertoires. OVA-specific B cells can be detected by flow cytometry as CD3-IgD− cells that bind specifically to A1exa488-conjugated OVA (OVA+) (data not shown). […] Using this strategy, we determined if addition of TLR agonist to IFA impacts OVA-specific B cell responses in vivo. […]
(In general: In flow cytometry, cells or beads pass a laser one at a time.)

Test [3] has as its system 1W1K-specific Tfh cells. The experiment in a line: 1W1K-specific CD4+ T cell and Tfh cell response in draining lymph nodes after immunisation (pMHCII tetramer flow cytometry). Type of test: in vivo, C57Bl/6 mice. The settings on record: for 1W1K-specific Tfh cells in the dLN / amount of 1W1K-specific CD4+ T cells / total number of CD4+ T cells in the dLN: TLR agonist added to IFA; for 1W1K-specific Tfh cells in the dLN: 40 μg 1W1K s.c., 9 days, FIG. 1A; for amount of 1W1K-specific CD4+ T cells / total number of CD4+ T cells in the dLN: 1W1K s.c., peak of primary response, versus IFA only. As for the experimental part: as §1
To block IL-6 signalling, i.p. injections of 100 μg D7715A7 mAb (anti-IL-6R[…], eBioscience) or Rat IgG2b isotype control were performed at day −1 and +4 post-immunisation. To deplete mice of monocytes, i.v. injections of 250 μL of clodronate liposomes or control PBS liposomes (clodronateliposome.com) were performed from day −1 every second day.
For population analysis, dLN were harvested from mice and single cell suspensions were prepared in PBS with 2% FCS, 5 mM EDTA. For DC analysis, lymphoid organs were dissociated using 125 μg/mL LiberaseTL (Roche) and 40 μg/mL DNAase I (Sigma-Aldrich) at 37° C. for 20 min. 1×10^8 cells/ml were labelled at 4° C. for 45 min with mAbs: Reagents from BD Pharmingen [AlexaFluor488-K112-91 (anti-Bcl-6); PE-M1/70 (anti-CD11b), PE-281-2 (anti-CD138); Cy5PE-M1/70 (anti-CD11b); APC-2G8 (anti-CXCR5); V500-500A2 (anti-CD3); Pacific Blue-53-6.7 (anti-CD8α); Biotin-Jo2 (anti-CD95); Biotin-2G8 (anti-CXCR5)], Reagents from eBioscience [FITC-eBio1D3 (anti-CD19), FITC-RA3-6B2 (anti-B220), FITC-RM4-5 (anti-CD4); PE-MAR-1 (anti-FceR1), PE-205yekta (anti-CD205), PE-2E7 (anti-CD 103), PE-MP5-20F3 (anti-IL-6); Cy5PE-RM4-5 (anti-CD4); Cy7PE-N418 (anti-CD11c), Cy7PE-53-6.7 (anti-CD8α); Cy5.5PE-anti-CD19, Cy5.5PE-HK1.4 (anti-Ly-6c); APC-N418; AlexaFluor647 anti-GL-7; AlexaFluor700-MEL-14 (anti-CD62L), AlexaFluor700-eBio1D3, AlexaFluor700-IM7 (anti-CD44); APCeFluor780-IM7, APCeFluor780-BM8 (anti-F4/80), APCeFluor780-RA3-6B2; eFluor450-11-26c (anti-IgD), eFluor450-MEL-14; biotin-Y-Ae], reagent from R&D PE-475301(anti-CCR2). Before data collection […] propidium iodide (PI) was added to samples. 1W1K-IAb tetramer was obtained from NIH Tetramer core facility. For IL-6 intracellular staining cell suspensions were incubated for 4 hr at 37° C. in the presence of 3 μg/mL Golgi Plug (BD Bioscience) and 4 μM Monensin, fixed and permabilised using BD Fixation/Permeabilisation kit. Before permeabilisation cells were stained with Fixable Viability Dye eFluor450 or eFluor660 (eBioscience). Data were collected on a BD LSRII™ (BD Biosciences) and analysed using FlowJo software (Tree Star).
6-8-wk-old C57Bl/6 mice were irradiated (0.85 Gy) the day before i.v. injection of 1×10^7 T cell-depleted BM cells that consisted of a mix of 70% from CD11c-DTR or JHT supplemented with 30% from TLR9KO, Myd88KO, TRIFKO, IL-6K0 or wt CD45.1 C57Bl/6 mice. After 8 wk, the chimeras with CD11c-DTR BM were i.p. treated every second day with 4 ng/g body weight DTx (Sigma-Aldrich) and 1 day before immunisation with 20 ng/mouse s.c. Treated animals were then s.c. immunised either with 1W1K or OVA as described above.
The combination of adjuvant to a peptide favours robust T-dependent B cell immunity. To test whether addition of TLR agonists to other vaccine adjuvant could have a synergistic effect on the induced immune response, we examined the I-Ab restricted murine CD4+ T cell response to a peptide variant ([…], called 1W1K peptide hereafter, SEQ ID NO:1) of the I-E alpha chain immunodominant peptide 52-68 (Ea52-68) in C57Bl/6 mice. We followed the 1W1K-specific CD4+ T cells with the corresponding pMHCII tetramer in the draining lymph nodes (dLN) after sub-cutaneous (s.c.) immunisation in Incomplete Freund's adjuvant (IFA). At the peak of the effector CD4+ T cell response, we detected the CD44+ and pMHCII tetramer+1W1K-specific CD4+ T cells in the dLN (data not shown). […]

In test [4] the test system is IL-6. The experiment in a line: IL-6 in serum of immunised animals (IL-6 ELISA kit). Type of test: in vivo, mice. The settings on record: 4 hours after i.p. injection; 1W1K in Alum.
The mark [5] stands for this setting: BM chimeras (JHT + MyD88KO) lacking MyD88 signalling in B cells, added to IFA.

In the case of lipopolysaccharide [LPS], the “enhancing effect on OVA-specific IgG” value in test [1] (setting [5]) was “also observed”. Further, the “circulating OVA-specific IgG” value in test [1] (IFA supplemented with TLR agonist, 14 days, FIG. 2B) is given as “significant increase”. Further, in test [2], the “OVA-specific GC-B cells” value is listed as “increased”, the “OVA-specific PC” value was “increased” and the “overall OVA-specific B cells” value is reported as “increased”. Further, the “enhancing effect on 1W1K-specific Tfh cells” value in test [3] (setting [5]) is “also observed”. Also, in test [3], the “1W1K-specific Tfh cells in the dLN” value is given as “induced an increase”, the “amount of 1W1K-specific CD4+ T cells” value is reported as “did not statistically change” and the “total number of CD4+ T cells in the dLN” value is reported as “did not statistically change”. Besides, the “1W1K-specific Tfh cell differentiation” value in test [3] (added to Alum, i.p., JHT mice (no functional B cells), 5 days) was “enhanced”. The “increase of 1W1K-specific Tfh response” value in test [3] (chimeras (CD11c-DTR + MyD88KO), DTx: MyD88 signalling in CD11c+ cells impaired, FIG. 3B) is “not observed”. In addition, the “IL-6 in the serum, sensitised JHT animals compared to sensitised wt mice” value in test [4] is reported as “significant decrease”.
In the case of poly(I:C), in test [3], the “1W1K-specific Tfh cells in the dLN” value was “had no enhancing effect”, the “amount of 1W1K-specific CD4+ T cells” value was “did not statistically change” and the “total number of CD4+ T cells in the dLN” value was “did not statistically change”.
